Assay results published in patent US20210038559A1, “CANNABINOIDS AND DERIVATIVES FOR PROMOTING IMMUNOGENICITY OF TUMOR AND INFECTED CELLS” (priority 2018, published 2021).
Structures can show the parent of a compound that is named as a salt.

Test system: MHC-I expression by COLO 205 cells
Test: cells
Type: cell-based, human
Settings: Homo sapiens, COLO 205, 48 h, MHC-I expression, COLO 205 cells, compounds at 35 μM, 48 hours, flow cytometry (W6/32); read-out: Induction Fold
Description: A panel of synthetic cannabinoids (Cayman Chemical, #9002891) was tested for MHC class I-inducing capability in COLO 205 cells as described above. COLO 205 cells were treated with the compounds at a concentration of 35 μM and evaluated for cell surface MHC class I expression after 48 hours. Cells were harvested, stained with MHC-I mAb W6/32 (Thermo Fisher). MHC-I expression was determined by flow cytometry.

Compound | fold induction at 35 µM
O=C(c1ccccc1I)c1cn(CCCCCF)c2ccccc12 [Example 54, [1-(5-fluoropentyl)-1H-indol-3-yl](2-iodophenyl)-methanone] | 2.93
CCC(C(N)=O)N(C)C(=O)c1nn(Cc2ccc(F)cc2)c2ccccc12 (single isomer, unassigned) [Example 135, N-(1-amino-1-oxobutan-2-yl)-1-(4-fluorobenzyl)-N-methyl-1H-indazole-3-carboxamide] | 2.23
CCCCn1cc(C(=O)c2ccc(OC)cc2)c2ccccc21 [Example 282, (4-methoxyphenyl)(1-butyl-1H-indol-3-yl)-methanone] | 1.47
O=C(Oc1ccc2cnccc2c1)c1cn(CC2CCCCC2)c2ccccc12 [Example 327, isoquinolin-6-yl 1-(cyclohexylmethyl)-1H-indole-3-carboxylate] | 1.24
CNCC(C)Cc1ccc2c(c1)OCO2 (stereo not drawn) [Example 348, N,β-dimethyl-1,3-benzodioxole-5-propanamine, monohydrochloride] | 1.11
N#CCCCCn1cc(C(=O)c2cccc3ccccc23)c2ccccc21 [Example 55, 3-(1-naphthalenylcarbonyl)-1H-Indole-1-pentanenitrile] | 2.92
CC(F)CCCn1cc(C(=O)Oc2cccc3cccnc23)c2ccccc21 (centres unmarked) [Example 102, quinolin-8-yl 1-(4-fluoropentyl)-1H-indole-3-carboxylate] | 2.41
CCCCCn1cc(C(=O)Cc2ccccc2)c2ccccc21 [Example 80, 1-(1-pentyl-1H-indol-3-yl)-2-phenyl-ethanone] | 2.57
CCCCCn1cc(C(=O)c2cccc(OC)c2)c2ccccc21 [Example 56, (3-methoxyphenyl)(1-pentyl-1H-indol-3-yl)methanone] | 2.9
O=C(Oc1cccc2cccnc12)c1nn(Cc2ccc(F)cc2)c2ccccc12 [Example 276, quinolin-8-yl 1-(4-fluorobenzyl)-1H-indazole-3-carboxylate] | 1.51
O=C(Nc1cccc2ccccc12)c1cn(CCCCCF)c2ccncc12 [Example 373, 1-(5-fluoropentyl)-N-(naphthalen-1-yl)-1H-pyrrolo[3,2-c]pyridine-3-carboxamide] | 0.49
CC(C)(NC(=O)c1c2ccccc2nn1CCCCC#N)c1ccccc1 (single isomer, unassigned) [Example 299, 2-(4-cyanobutyl)-N-(2-phenylpropan-2-yl)-2H-indazole-3-carboxamide] | 1.42
C=CCCCn1cc(C(=O)c2ccc(C)c3ccccc23)c2ccccc21 [Example 334, (4-methylnaphthalen-1-yl)(1-(pent-4-en-1-yl)-1H-indol-3-yl)methanone] | 1.2
O=C(Nc1cccc2ccccc12)c1cn(CCCCCF)c2ccccc12 [Example 286, 1-(5-fluoropentyl)-N-(naphthalen-1-yl)-1H-indole-3-carboxamide] | 1.45
Cc1c(C(=O)c2ccccc2)c(N)c(-c2ccccc2)n1Cc1ccc(Cl)cc1 [Example 27, [4-amino-1-[(4-chlorophenyl)methyl]-2-methyl-5-phenyl-1H-pyrrol-3-yl]phenyl-methanone] | 3.43
COc1ccc(C(=O)c2c(C)n(CCN3CCOCC3)c3cc(I)ccc23)cc1 [Example 320, [6-iodo-2-methyl-1-[2-(4-morpholinyl)ethyl]-1H-indol-3-yl](4-methoxyphenyl)-methanone] | 1.3

Compound | fold induction at 35 µM
CC1(C)C(C(=O)c2cn(CC3CCOCC3)c3ccccc23)C1(C)C [Example 260, [1-[(tetrahydro-2H-pyran-4-yl)methyl]-1H-indol-3-yl](2,2,3,3-tetramethylcyclopropyl)-methanone] | 1.57
COc1ccc2c(c1)c(CC(=O)N1CCOCC1)c(C)n2C(=O)c1ccc(Cl)cc1 [Example 121, 2-[1-(4-chlorobenzoyl)-5-methoxy-2-methyl-1H-indol-3-yl]-1-(4-morpholinyl)-ethanone] | 2.32
CC1(C)C(C(=O)N/N=C2\C(=O)N(CCCCCF)c3ccccc32)C1(C)C [Example 111, 2,2,3,3-tetramethyl-cyclopropanecarboxylic acid (2Z)-2-[1-(5-fluoropentyl)-1,2-dihydro-2-oxo-3H-indol-3-ylidene]hydrazide] | 2.37
CCN(CC)CCN1C(=O)CN=C(c2ccccc2F)c2cc(Cl)ccc21 [Example 250, 7-chloro-1-[2-(diethylamino)ethyl]-5-(2-fluorophenyl)-1,3-dihydro-2H-1,4-benzodiazepin-2-one] | 1.63
CCCCCn1cc(C(=O)Cc2ccccc2C)c2ccccc21 [Example 101, 2-(2-methylphenyl)-1-(1-pentyl-1H-indol-3-yl)-ethanone] | 2.42
O=C(Oc1ccnc2ccccc12)c1cn(CCCCCF)c2ccccc12 [Example 92, quinolin-4-yl 1-(5-fluoropentyl)-1H-indole-3-carboxylate] | 2.47
CCCCCn1cc(C(=O)c2ccccc2OC)c2ccccc21 [Example 20, (2-methoxyphenyl)(1-pentyl-1H-indol-3-yl)-methanone] | 3.98
CC(C)(C)C(NC(=O)c1nn(Cc2ccc(F)cc2)c2ccccc12)C(N)=O (centres unmarked) [Example 247, N-[1-(aminocarbonyl)-2,2-dimethylpropyl]-1-[(4-fluorophenyl)methyl]-1H-indazole-3-carboxamide] | 1.64
CCCCCCCCC(C)(C)c1ccc([C@H]2CCC[C@@H](O)C2)c(O)c1 (relative stereo) [Example 374, cis-5-(1,1-dimethylnonyl)-2-(3-hydroxycyclohexyl)-phenol] | 0.49
O=C(Oc1cccc2ccccc12)c1cn(Cc2ccc(F)cc2)c2ccccc12 [Example 248, 1-[(4-fluorophenyl)methyl]-1H-indole-3-carboxylic acid, 1-naphthalenyl ester] | 1.63
COc1cccc2c(C(=O)N3CCN(C)C(C)C3)cn(CC3CCCCC3)c12 (racemic) [Example 277, [1-(cyclohexylmethyl)-7-methoxy-1H-indol-3-yl](3,4-dimethyl-1-piperazinyl)-methanone] | 1.5
CCCCCCC(C)(C)c1ccc([C@H]2C[C@@H](O)CC[C@@H]2CCCO)c(O)c1 [Example 365, 2-((1S,2S,5S)-5-hydroxy-2-(3-hydroxypropyl)cyclohexyl)-5-(2-methyloctan-2-yl)phenol] | 0.89
CCCCCn1cc(C(=O)c2ccccc2I)c2ccccc21 [Example 36, (2-iodophenyl)(1-pentyl-1H-indol-3-yl)-methanone] | 3.3
CC(C)(C)n1cc(C(=O)c2cccc3ccccc23)c2ccccc21 [Example 336, (1-(tert-butyl)-1H-indol-3-yl)(naphthalen-1-yl)methanone] | 1.2
COc1ccccc1CC(=O)c1cn(CCC2CCCCC2)c2ccccc12 [Example 74, 1-(1-(2-cyclohexylethyl)-1H-indol-3-yl)-2-(2-methoxyphenyl)ethanone] | 2.65

Same assay, conditions: MHC-I expression, COLO 205 cells, compounds at 35 μM, 48 hours, flow cytometry (W6/32)

Compound | Induction Fold [Fold]
CCCCCCC(C)(C)C1=CC(=O)C([C@H]2CCC[C@@H](O)C2)=CC1=O [Example 61, 3′R-hydroxy-4-(2-methyloctan-2-yl)-[1,1′S-bi(cyclohexane)]-3,6-diene-2,5-dione] | 2.85
